Series [1] deals with mouse embryonic cells (MEC). Put plainly: EPR-based analysis of integration and reduction of nitroxide Gramicidin S-peptidyl conjugates in MECs. The format is cell-based. Particulars: 10 μM, whole cells, cytosol fractions. As for the experimental part:
Electron paramagnetic resonance (“EPR”) spectroscopy was used to monitor the cellular delivery of compounds 5a and 5b shown in FIG. 3 in mouse embryonic cells (“MEC”).
The following conditions were used during the EPR-based analysis of the integration and reduction of nitroxide Gramicidin S-peptidyl conjugates in MECs. The MECs at a concentration of 10 million MECs per mL were incubated with 10 μM of 4-AT and compound 5a, respectively. Recovered nitroxide radicals in whole cells, mitochondria, and cytosol fractions were resuspended in phosphate buffer saline (“PBS”) in the presence and absence, respectively, of 2 μM K3Fe(CN)6.

Series [2] deals with rat ileal mucosal permeability. Put plainly: Intestinal mucosal permeability assay (FD4) after hemorrhagic shock. Type of series: in vivo. The protocol: Intestinal mucosal permeability assay. Animals were allowed access to water but not food for 24 h prior to the experiment in order to decrease the volume of intestinal contents. The rats were instrumented as described above. A midline laparotomy was performed and the small intestine was exteriorized from the duodenojejunal junction to the ileocecal valve. A small incision was made on the antimesenteric aspect of the proximal small intestine and saline solution (1.5 ml) was injected. The bowel was ligated proximally and distally to the incision with 4-0 silk (Look, Reading, Pa.).
The small intestine was compressed gently in aboral direction along its length to displace intestinal contents into the colon. Starting 5 cm from the ileocecal valve, the ileum was partitioned into six contiguous water-tight segments. Each segment was 3 cm long and was bounded proximally and distally by constricting circumferential 4-0 silk sutures. Care was taken to ensure that the vascular supply to intestine was not compromised, and each segment was well-perfused.
Two randomly selected segments in each rat were injected with 0.3 ml of vehicle and served as “no treatment” controls. In order to fill the segments, a small incision was made and the solution was injected using a Teflon catheter (Abbocath 16Ga, Abbot Laboratories).
The remaining four other segments were injected with solutions containing either 4-hydroxy-2,2,6,6-tetramethylpiperidine-N-oxyl (TEMPOL) or one of the Gramicidin S-based compounds. Four different final concentrations of TEMPOL in normal saline were evaluated: 0.1, 1, 5 and 20 mM. The hemigranmicidin-based compounds were dissolved in a mixture of dimethylsulfoxide (DMSO) and normal saline (1:99 v/v) and injected at final concentrations of 0.1, 1, 10 or 100 μM. […]
Fluorescence of FD4 in the solution inside the beaker and within each gut sac was measured using a fluorescence spectrophotometer (LS-50, Perkin-Elmer, Palo Alto, Calif.) at an excitation wavelength of 492 nm and an emission wavelength of 515 nm. […]

Series [3] concerns phospholipids in intestinal mucosa. In words: Peroxidation of phospholipids in gut mucosa after hemorrhagic shock. Type of series: in vivo, rat. Particulars: 10 μM intraluminal; 2 h HS. From the text: Assay for peroxidation of phospholipods. Gut mucosal samples were homogenized. Lipids were extracted from homogenates using the Folch procedure, see M. Lees and G. H. Sloan-Stanley, A simple method for isolation and purification of total lipids from animal tissue, J. BIOL. CHEM. 226:497-509 (1957), and resolved by 2D HPTLC (High Performance Thin Layer Chromatography) as previously described, see Kagan, V. E. et al., A role for oxidative stress in apoptosis: Oxidation and externalization of phosphatidylserine is required for macrophage clearance of cell undergoing Fas-mediated apoptosis, J Immunol. 169:487-489 (2002). Spots of phospholipids were scraped from HPTLC plates and phospholipids were extracted from silica. Lipid phosphorus was determined by a micro-method, see Bottcher, C. J. F. et al, A rapid and sensitive sub-micro phosphons determination. Anal Chim Acta. 24: 203-204 (1961).
Oxidized phospholipids were hydrolyzed by pancreatic phospholipase A2 (2 U/μl) in 25 mM phosphate buffer containing 1 mM CaCl2. 0.5 mM EDTA and 0.5 mM sodium dodecyl sulfate (SDS) (pH 8.0, at room temperature for 30 min). Fatty acid hydroperoxides formed were determined by fluorescence HPLC of resorufin stoichiometrically formed during their microperoxidase 11-catalized reduction in presence of Amplex Red (for 40 min at 4° C.) (8). Fluorescence HPLC (Eclipse XDB-C18 column, 5 μm, 150×4.6 mm, mobile phase was composed of 25 mM disodium phosphate buffer (pH 7.0)/methanol (60:40 v/v); excitation wavelength 560 nm, emission wavelength 590 nm) was performed on a Shimadzu LC-100AT HPLC system equipped with fluorescence detector (RF-10Axl) and autosampler (SIL-10AD).
In the subsequent series of in vivo studies, the affect of intraluminal XJB-5-131 on hemorrhage-induced peroxidation of phospholipids in intestinal mucosa was examined. […] In a preferred embodiment, 0.3 mL of test solution filled the lumen of each ileal compartment.
After two hours of HS, samples of ileal mucosa from the gut sacs filled with the vehicle and XJB-5-131 were obtained and compared with ileal mucosa of normal MECs. […]

Consider `CC(C)C[C@@H](/C=C/[C@H](Cc1ccccc1)C(=O)N1CCC[C@H]1C(=O)N[C@H](C(=O)N[C@@H](CCCNC(=O)OCc1ccccc1)C(=O)NC1CC(C)(C)N([O])C(C)(C)C1)C(C)C)NC(=O)OC(C)(C)C` [XJB-5-131], for which, in series [1], the “EPR signals of nitroxide radicals; integration into cells and mitochondria” value is listed as “concentrated in the mitochondria”. In series [2] (from lowest effective concentrations), the “potency relative to TEMPOL” value is around 1000 fold. In addition, in series [2] (intraluminal), the “hemorrhagic shock-induced mucosal hyperpermeability, of the control value” is on record as “approximately 60%” and the lowest effective concentration was 1 µM. In addition, in series [3], the “peroxidation of phosphatidylcholine (PC)” value is on record as “no effect”, the “peroxidation of phosphatidylethanolamine (PE)” value is reported as “only had a small effect” and the “peroxidation of phosphatidylserine (PS)” value was “no effect”.

The values above are taken from patent publication US9890192B2, “Targeted nitroxide agents” (University of Pittsburgh—of the Commonwealth System of …, priority 2008, dated 2018).
